Reference: the NIST ThermoML archive (doi:10.1021/je100131c)

Tests used:
[1] = Adiabatic calorimetry
[2] = molar heat capacity at constant pressure; settings: 101.33 kPa

CCCn1cc[n+](C)c1.N[C@@H](CCC(=O)O)C(=O)[O-]
Settings | Glass transition temperature [°C]
[1] | -33

[2]
Settings | molar heat capacity at constant pressure [J/K/mol]
86.07 K, Glass | 150.25
88.05 K, Glass | 152.63
90.01 K, Glass | 154.9
91.97 K, Glass | 157.5
93.95 K, Glass | 159.49
95.92 K, Glass | 162.14
97.89 K, Glass | 164.13
99.85 K, Glass | 166.66
102.59 K, Glass | 169.25
105.33 K, Glass | 173.04
107.28 K, Glass | 175.8
109.24 K, Glass | 177.98
111.23 K, Glass | 179.21
113.2 K, Glass | 181.07
115.14 K, Glass | 183.75
117.1 K, Glass | 185.58
119.09 K, Glass | 186.96
121.06 K, Glass | 188.82
123 K, Glass | 191.13
124.97 K, Glass | 193.29
126.97 K, Glass | 194.36
128.94 K, Glass | 196.26
130.9 K, Glass | 199.43
132.84 K, Glass | 200.78
134.79 K, Glass | 203.07
136.78 K, Glass | 204.43
138.75 K, Glass | 206.24
140.7 K, Glass | 207.69
142.65 K, Glass | 208.89
144.61 K, Glass | 211.05
146.6 K, Glass | 212.89
148.57 K, Glass | 215.15
150.53 K, Glass | 216.91
153.04 K, Glass | 219.16
155.56 K, Glass | 221.42
157.53 K, Glass | 223.77
159.49 K, Glass | 225.64
161.44 K, Glass | 227
163.38 K, Glass | 228.24
165.3 K, Glass | 230.3
167.27 K, Glass | 232.18
169.28 K, Glass | 234.1
171.28 K, Glass | 236.74
173.27 K, Glass | 237.97
175.25 K, Glass | 240.31
177.21 K, Glass | 242.87
179.17 K, Glass | 243.7
181.11 K, Glass | 245.51
183.05 K, Glass | 248.04
185.03 K, Glass | 250.2
187.05 K, Glass | 252.7
189.06 K, Glass | 255.28
191.06 K, Glass | 257.14
193.05 K, Glass | 259.68
195.03 K, Glass | 262.63
197.01 K, Glass | 264.18
198.97 K, Glass | 266.54
200.93 K, Glass | 268.59
203.31 K, Glass | 271.02
205.67 K, Glass | 273.69
207.65 K, Glass | 277.76
209.69 K, Glass | 281.69
211.73 K, Glass | 283.31
213.76 K, Glass | 284.6
215.8 K, Glass | 286.92
217.82 K, Glass | 290.11
219.85 K, Glass | 294.21
221.88 K, Glass | 296.62
223.91 K, Glass | 297.46
225.94 K, Glass | 299.66
227.97 K, Glass | 300.73
229.99 K, Glass | 302.48
231.96 K, Glass | 310.06
234 K, Glass | 323.45
236.07 K, Glass | 333.04
238.02 K, Glass | 358.09
239.86 K, Glass | 407.73
242.01 K, Glass | 462.82
244.24 K, Liquid | 471
246.18 K, Liquid | 472.35
248.12 K, Liquid | 473.61
250.04 K, Liquid | 475.54
251.97 K, Liquid | 476.41
253.9 K, Liquid | 477.37
255.89 K, Liquid | 478.45
257.87 K, Liquid | 480.19
259.86 K, Liquid | 481.42
261.91 K, Liquid | 483.73
263.96 K, Liquid | 485.28
266 K, Liquid | 486.86
268.04 K, Liquid | 487.89
270.07 K, Liquid | 489.67
272.09 K, Liquid | 491.51
274.12 K, Liquid | 493.23
276.13 K, Liquid | 495.7
278.15 K, Liquid | 497.67
280.16 K, Liquid | 498.94
282.16 K, Liquid | 501.05
284.17 K, Liquid | 503.38
286.16 K, Liquid | 505.39
288.12 K, Liquid | 507.35
290.06 K, Liquid | 509.26
292.08 K, Liquid | 511.23
294.05 K, Liquid | 513.1
296.01 K, Liquid | 514.91
297.97 K, Liquid | 516.83
299.93 K, Liquid | 518.67
301.88 K, Liquid | 520.07
303.82 K, Liquid | 521.96
305.77 K, Liquid | 523.25
307.7 K, Liquid | 524.77
309.64 K, Liquid | 526.25
311.57 K, Liquid | 527.31
313.5 K, Liquid | 528.82
315.43 K, Liquid | 530.52
317.41 K, Liquid | 531.97
319.47 K, Liquid | 533.47
321.52 K, Liquid | 534.99
323.57 K, Liquid | 536.53
325.61 K, Liquid | 538.93
327.65 K, Liquid | 539.74
329.68 K, Liquid | 541.83
331.71 K, Liquid | 543.17
333.73 K, Liquid | 544.98
335.75 K, Liquid | 546.87
337.76 K, Liquid | 549.25
339.77 K, Liquid | 550.76
341.77 K, Liquid | 553.01
343.77 K, Liquid | 554.52
345.76 K, Liquid | 557
347.75 K, Liquid | 559.26
349.74 K, Liquid | 561.22
351.73 K, Liquid | 563.15
353.72 K, Liquid | 565.12
355.7 K, Liquid | 566.91
357.68 K, Liquid | 568.06
